Results as given in patent publication US4463007A, “Triazoloquinazolinones, and compositions and methods for treating allergic disorders with them” (BASF Aktiengesellschaft, priority 1981, dated 1984).

System: PCA in rats
Experiment: Passive cutaneous anaphylaxis (PCA) in rats, anti-allergic action, oral administration
Format: in vivo, rat
Conditions: for ED50: Rattus norvegicus, dose which reduces diameter of color patch by 50% relative to non-medicated controls, read-out: Inhibition of PCA in rats, ED 50%; for ED50 / R.A. (relative activity) / times more active than the comparative compound Pirquinozol: oral; for R.A. (relative activity): Pirquinozol = 1.00
Procedure: The anti-allergic action was tested on rats, using the passive cutaneous anaphylaxis (PCA) model.
Narcotized male rats (100 to 140 g) are sensitized by intradermal injection (into the shaved dorsal skin) of 0.1 ml of an ovalbumin antiserum. After a sensitization period of about 48 hours, the treatment (intraperitoneal or oral administration) is carried out with various dosages (10 animals/dose)of the test substances. 15-20 minutes after treatment, an antigen/Evans blue mixture (10 mg/kg of ovalbumin in 2% strength Evans blue solution) is injected intravenously into the test animals. 30 minutes later, the animals are sacrificed, the dorsal skin is removed and the diameter of the circular blue coloration is measured on the inner surface. The size of the color patches of untreated control animals can be standardized. Anti-allergic substances reduce the diameter of the color patch by an amount dependent on the dose. The ED 50% is quoted as the dose which reduces the diameter of the color patch by 50% relative to that of non-medicated control animals. In addition to the anti-allergic action, the acute toxicity was determined for intraperitoneal administration, using groups of 2 NMRI mice, each weighing 20-26 g, and for oral administration, using groups of 2 Sprague-Dawley rats, each weighing 120-150 g. The LD 50 was determined on groups of 10 NMRI mice, each weighing 20-26 g, after intraperitoneal administration. The post-observation period was 14 days.

SMILES | ED50 | R.A. (relative activity) (PCA rats) | activity in oral doses (in words) (oral doses of up to 100 mg/kg, PCA rats) | times more active than the comparative compound Pirquinozol (PCA rats)
CCOC(=O)c1nc2c3cc(Cl)ccc3n(C)c(=O)n2n1 [Example 20, Ethyl 9-chloro-6-methyl-1,2,4-triazolo[1,5-c]quinazolin-5-one-2-carboxylate] | 0.723 mg/kg | 1.64 |  | 
CCOC(=O)c1nc2c3ccccc3n(C)c(=O)n2n1 [Example 13, Ethyl 6-methyl-1,2,4-triazolo[1,5-c]quinazolin-5-one-2-carboxylate] | 0.518 mg/kg | 2.29 |  | 
CCOC(=O)c1nc2c3cc(C)ccc3n(C)c(=O)n2n1 [Example 25, Ethyl 6,9-dimethyl-1,2,4-triazolo[1,5-c]quinazolin-5-one-2-carboxylate] | 0.617 mg/kg | 1.92 |  | 
CCOC(=O)c1nc2c3cc(C)c(C)cc3n(CC)c(=O)n2n1 [Example 28, Ethyl 8,9-dimethyl-6-ethyl-1,2,4-triazolo[1,5-c]quinazolin-5-one-2-carboxylate] | 0.876 mg/kg | 1.36 |  | 
CCOC(=O)c1nc2c3ccccc3n(CC)c(=O)n2n1 [Example 14, Ethyl 6-ethyl-1,2,4-triazolo[1,5-c]quinazolin-5-one-2-carboxylate] | 0.707 mg/kg | 1.68 |  | 
O=c1[nH]c2ccccc2c2cc(CO)nn12 [Pirquinozol, reference compound] | 1.19 mg/kg | 1.00 |  | 
O=C(O)c1cc(=O)c2c(OCC(O)COc3cccc4oc(C(=O)O)cc(=O)c34)cccc2o1 [Cromolyne, reference compound] | > 100 mg/kg |  | inactive | 
CCOC(=O)c1nc2c3cc(C)c(C)cc3n(C)c(=O)n2n1 [Example 27, Ethyl 6,8,9-trimethyl-1,2,4-triazolo[1,5-c]quinazolin-5-one-2-carboxylate] | 1 mg/kg | 1.19 |  | 1.2 times
CCOC(=O)c1nc2c3cc(C)ccc3n(CC)c(=O)n2n1 [Example 17, Ethyl 6-ethyl-9-methyl-1,2,4-triazolo[1,5-c]quinazolin-5-one-2-carboxylate] | 0.271 mg/kg | 4.39 |  | 4.4 times
